From US8835147B2, “Cellular production of glucaric acid through recombinant expression of uronate dehydrogenase and myo-inositol oxygenase” (Massachusetts Institute of Technology, priority 2008, dated 2014)
Where “and” joins values, the source holds several entries; their conditions need not be identical. Identical values can stand only once. Like-named read-outs stand apart in the source and are kept apart here.

Legend:
[1] = molecular target: T1, MIOX from hog kidney (Sus scrofa, UniProt Q8WN98); details: cited from earlier work; for inhibition of MIOX from hog kidney in vitro: reported (30, 31); for inhibition of MIOX activity: at high concentrations, reported previously (30, 31)
T1 sequence (Q8WN98 1-282): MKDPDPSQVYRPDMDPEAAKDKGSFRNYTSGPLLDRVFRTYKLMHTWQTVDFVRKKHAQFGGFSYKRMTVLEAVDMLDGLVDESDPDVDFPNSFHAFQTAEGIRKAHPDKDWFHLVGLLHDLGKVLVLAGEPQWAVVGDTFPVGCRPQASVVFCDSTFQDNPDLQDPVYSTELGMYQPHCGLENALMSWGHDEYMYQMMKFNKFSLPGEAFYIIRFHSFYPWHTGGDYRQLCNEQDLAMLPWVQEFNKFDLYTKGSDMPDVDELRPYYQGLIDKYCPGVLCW

[2] = molecular target: T2, uronate dehydrogenase from P. putida (Pseudomonas putida, UniProt Q88NN6); assay: Kinetic analysis of purified Udh (initial NADH generation at 340 nm); assay type: biochemical, Pseudomonas putida KT2440; details: purified 6×His Udh, 0 to 10 mM substrate, 1.2 mM NAD^+
T2 construct: 6xHis (C); made in house; host or cells: E. coli BL21 (DE3)
Procedure: (§1) The udh genes from genomic DNA of A. tumefaciens, P. putida, and P. syringae were amplified using primers ATuEQ-F/R, PPuEQ-F/R, and PSuEQ-F/R as listed in Table 4. The PCR products were digested with SacI and HindIII and inserted into the same sites of pET21b containing a 6×His-Tag to construct pETATu, pETPPu, and pETPSu, respectively (Table 4). These plasmids were used to transform E. coli BL21 (DE3) to use for protein expression. The recombinant E. coli BL21 strains were cultivated at 30° C., 250 rpm for 6 hours after IPTG induction. Protein purification was carried out using the ProBond™ Purification System as described by the manufacturer (Invitrogen Corp, Carlsbad, Calif., USA). SDS-PAGE (sodium dodecyl sulfate-polyacrylamide gel electrophoresis) was performed as described in Sambrook et. al. (35). Enzyme activities on substrates of purified proteins were measured by monitoring initial NADH generation at 340 nm and room temperature. Kinetic analysis on glucuronate and galacturonate was carried out using 0 to 10 mM glucuronate or galacturonate and 1.2 mM NAD^+ in 100 mM Tris-HCl, pH 8.0. Kinetic analysis on NAD^+ was performed using 0 to 2 mM NAD^+ and 10 mM glucuronate in 100 mM Tris-HCl, pH 8.0. A series of enzymatic assays were conducted to estimate the initial activity as a function of starting substrate concentration. […] Nonlinear least-squares regression analyses were performed via the Gauss-Newton method as implemented using the intrinsic Matlab® function nlinfit.

[3] = molecular target: T3, uronate dehydrogenase from P. syringae (Pseudomonas syringae pv. tomato, UniProt Q888H1); assay: as above; assay type: biochemical, Pseudomonas syringae pv. tomato str. DC3000; details: purified 6×His Udh, 0 to 10 mM substrate, 1.2 mM NAD^+
T3 construct: 6xHis (C); made in house; host or cells: E. coli BL21 (DE3)
Procedure: as §1

[4] = molecular target: T4, uronate dehydrogenase from A. tumefaciens (Agrobacterium fabrum, UniProt Q7CRQ0); assay: as above; assay type: biochemical, Agrobacterium tumefaciens str. C58; details: for kcat / Km: purified 6×His Udh, 0 to 10 mM substrate, 1.2 mM NAD^+
T4 construct: 6xHis (C); made in house; host or cells: E. coli BL21 (DE3)
Procedure: as §1

[5] = molecular target: T5, uronate dehydrogenase (Udh) of P. syringae (Pseudomonas syringae pv. tomato, UniProt Q888H1); assay: Udh activity in crude E. coli lysates (NADH generation at 340 nm); assay type: biochemical; details: crude E. coli lysates containing the P. syringae udh gene; data not shown
T5 construct: made in house; host or cells: E. coli (DH10B or BL21(DE3)); crude lysate, not purified
Procedure: Assays for uronate dehydrogenase activity were performed by monitoring NADH co-factor generation at 340 nm as described previously (35, 40). The reaction mixture contained 100 mM sodium phosphate buffer (pH 8.0), 2.5 mM glucuronic acid, 0.9 mM NAD^+, and bacterial lysate prepared as described above.
Bacterial lysates for enzymatic analysis were prepared by the freeze-thaw method. E. coli strains harboring udh genes were grown overnight in LB medium containing 0.1 mM IPTG (Isopropyl β-D-1-thiogalactopyranoside). Pellets were re-suspended in 1 mg/mL lysozyme solution and incubated on ice for 30 min. The suspensions were frozen in liquid nitrogen then thawed in a 37° C. water bath. This step was repeated five times. Cell lysates were centrifuged at 14,000 rpm at 4° C. for 15 min, and the supernatant was used for enzymatic analysis. Udh activities on glucuronate were measured by monitoring NADH (nicotinamide adenine dinucleotide, reduced) generation at 340 nm (38). The reaction mixture was consisted of 2.5 mM glucuronate, 0.9 mM NAD^+ (nicotinamide adenine dinucleotide), and 100 mM sodium phosphate buffer. The reaction was initiated by the addition of lysate to the reaction mixture at room temperature, and monitored. […] The total protein concentration was determined using the Bradford method (Bradford (1976) Anal Biochem 72:248-54). […]

[6] = system: E. coli; assay: E. coli growth and glucose consumption with added organic acid salts; assay type: cell-based, Escherichia coli; details: added at concentrations as high as 10 g/L; data not shown
[7] = Thermal stability of purified Udhs (30 minutes at temperature, then standard assay); assay type: physicochemical; details: purified Udh, FIG. 10b
Procedure: The impact of temperature was evaluated in two ways. First, the thermal stability was examined by exposing enzyme preparations to various temperatures for 30 minutes, then performing the enzyme assay under standard conditions. […] The activity remained near 80% of maximum after exposure of the A. tumefaciens preparation to 37° C., while the corresponding activities for both of the other enzymes was below 20% of maximum. The stability profiles for both Pseudomonas enzymes were similar to one another. Finally, enzyme activity was evaluated for assays conducted under increasing temperatures. These activities followed a general trend of increasing activity with increasing temperature between 4 and 42° C., which is consistent with an Arrhenius-type dependence of the catalytic rate constant on temperature (FIG. 10c).

[8] = 100 mM Tris-HCl pH 8.0, room temperature

T3 sequence (Q888H1 whole entry): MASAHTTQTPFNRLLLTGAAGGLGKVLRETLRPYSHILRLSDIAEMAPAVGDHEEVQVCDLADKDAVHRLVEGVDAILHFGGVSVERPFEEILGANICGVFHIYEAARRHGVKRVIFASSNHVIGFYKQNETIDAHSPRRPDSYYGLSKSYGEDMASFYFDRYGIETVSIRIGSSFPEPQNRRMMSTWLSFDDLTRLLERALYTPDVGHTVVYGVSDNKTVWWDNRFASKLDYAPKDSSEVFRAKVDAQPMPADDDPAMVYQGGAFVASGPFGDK
T2 sequence (Q88NN6 whole entry): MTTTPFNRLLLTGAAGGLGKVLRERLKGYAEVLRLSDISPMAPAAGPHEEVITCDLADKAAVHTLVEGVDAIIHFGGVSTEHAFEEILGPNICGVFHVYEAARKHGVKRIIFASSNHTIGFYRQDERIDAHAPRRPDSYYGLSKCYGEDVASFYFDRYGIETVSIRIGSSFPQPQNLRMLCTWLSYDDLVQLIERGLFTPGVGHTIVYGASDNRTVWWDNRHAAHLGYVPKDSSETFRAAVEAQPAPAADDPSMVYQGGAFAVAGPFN
T5 sequence (Q888H1 whole entry): as the sequence (Q888H1 whole entry) above

O=C(O)[C@@H](O)[C@@H](O)[C@H](O)[C@@H](O)C(=O)O [D-glucaric acid]
inhibition of MIOX from hog kidney in vitro [1]: inhibited

O=C[C@H](O)[C@H]1OC(=O)[C@@H](O)[C@H]1O [D-glucuronolactone]
inhibition of MIOX from hog kidney in vitro [1]: not

[Fe+2] [Fe^2+]
inhibition of MIOX activity [1]: inhibited

O=C(O)[C@H]1O[C@H](O)[C@H](O)[C@@H](O)[C@H]1O [Galacturonate, galacturonate]
kcat [2, 8]: 30 ± 3 s⁻¹ and 30.08 ± 3.12 s⁻¹
Km ([2]; pH 8.0): 100 ± 60 µM
kcat ([2]; pH 8.0): 0.3 ± 0.03 10^2 · 1/s
kcat [3, 8]: 24 ± 1 s⁻¹ and 24.02 ± 0.73 s⁻¹
Km ([3]; pH 8.0): 40 µM
kcat ([3]; pH 8.0): 0.2 ± 0.01 10^2 · 1/s
kcat [4, 8]: 92 ± 14 s⁻¹ and 91.85 ± 14.26 s⁻¹
Km ([4]; pH 8.0): 160 ± 120 µM
kcat ([4]; pH 8.0): 0.9 ± 0.14 10^2 · 1/s

O=C(O)[C@H]1O[C@@H](O)[C@H](O)[C@@H](O)[C@@H]1O [Glucuronate, glucuronate]
kcat [2, 8]: 55 ± 3 s⁻¹ and 54.57 ± 2.60 s⁻¹
Km ([2]; pH 8.0): 250 ± 70 µM
kcat ([2]; pH 8.0): 0.5 ± 0.03 10^2 · 1/s
inhibition of MIOX from hog kidney in vitro [1]: not
kcat [3, 8]: 74 ± 3 s⁻¹ and 73.77 ± 3.13 s⁻¹
Km ([3]; pH 8.0): 280 ± 70 µM
kcat ([3]; pH 8.0): 0.7 ± 0.03 10^2 · 1/s
kcat (highest rate constant) [4]: 190 s⁻¹
kcat of A. tumefaciens enzyme relative to the Pseudomonas enzymes ([4]; glucuronate as substrate): more than 2 fold
kcat [4, 8]: 194 ± 12 s⁻¹ and 193.90 ± 11.84 s⁻¹
Km ([4]; pH 8.0): 370 ± 120 µM
kcat ([4]; pH 8.0): 1.9 ± 0.12 10^2 · 1/s
kcat (highest rate constant) ([4]; unit not given): 1.9×10^2

NC(=O)c1ccc[n+]([C@@H]2O[C@H](COP(=O)([O-])OP(=O)(O)OC[C@H]3O[C@@H](n4cnc5c(N)ncnc54)[C@H](OP(=O)(O)O)[C@@H]3O)[C@@H](O)[C@H]2O)c1 [NADP^+]
utilization as a co-factor [5]: not

NC(=O)c1ccc[n+]([C@@H]2O[C@H](COP(=O)([O-])OP(=O)(O)OC[C@H]3O[C@@H](n4cnc5c(N)ncnc54)[C@H](O)[C@@H]3O)[C@@H](O)[C@H]2O)c1 [NAD^+, nicotinamide adenine dinucleotide]
utilization as a co-factor [5]: utilized

N[C@@H](CS)C(=O)O [cysteine]
inhibition of MIOX activity [1]: inhibited

O=C([O-])[C@@H](O)[C@@H](O)[C@H](O)[C@@H](O)C(=O)[O-].[K+].[K+] [potassium glucarate]
E. coli growth and glucose consumption [6]: not observed to be affected

O=C[C@H](O)[C@@H](O)[C@H](O)[C@H](O)C(=O)[O-].[Na+] [sodium glucuronate]
E. coli growth and glucose consumption [6]: not observed to be affected

B1: A. tumefaciens Udh: 6×-His tagged uronate dehydrogenase from A. tumefaciens str. C58 (SEQ ID NO:24), expressed in E. coli and purified (protein, listed as Agrobacterium tumefaciens)
chain: MKRLLVTGAAGQLGRVMRERLAPMAEILRLADLSPLDPAGPNEECVQCDLADANAVNAMVAGCDGIVHLGGISVEKPFEQILQGNIIGLYNLYEAARAHGQPRIVFASSNHTIGYYPQTERLGPDVPARPDGLYGVSKCFGENLARMYFDKFGQETALVRIGSCTPEPNNYRMLSTWFSHDDFVSLIEAVFRAPVLGCPVVWGASANDAGWWDNSHLGFLGWKPKDNAEAFRRHITETTPPPDPNDALVRFQGGTFVDNPIFKQS
modifications: 6xHis tag
activity after exposure to 37° C. for 30 minutes [7]: ~80 % of maximum
